For test [1], the target named is T1, C-X-C chemokine receptor type 4 (Homo sapiens, UniProt P61073). Put plainly: Displacement of [125I]-SDF-1alpha from human CXCR4 receptor expressed in HEK293 cells after 1 hr by gamma counting. The test is classed as cell-based. (In general: In a radioligand displacement assay an active substance lowers the binding of a labelled ligand.)
The target in test [2] is T1, C-X-C chemokine receptor type 4. Put plainly: Agonist activity at CXCR4 receptor in human REH cells assessed as induction of chemotactic migration after 3 hrs. The test is classed as functional, cell-based.
The target is the same in test [3]. Briefly: Antagonist activity at CXCR4 receptor in human REH cells assessed as inhibition of SDF-1alpha-induced chemotactic migration after 3 hrs. The test is classed as functional, cell-based.
The target is the same in test [4]. Put plainly: Agonist activity at CXCR4 receptor in human REH cells assessed as induction of chemotactic migration at 10 nM after 3 hrs. The test is classed as functional, cell-based.

The source made the active and inactive calls. No cut-off for these calls is given here.

This note sets out measurements from ChEMBL document CHEMBL2010767, “Agonists for the Chemokine Receptor CXCR4” (ACS Med Chem Lett, 2011).

T1 sequence (P61073 whole entry): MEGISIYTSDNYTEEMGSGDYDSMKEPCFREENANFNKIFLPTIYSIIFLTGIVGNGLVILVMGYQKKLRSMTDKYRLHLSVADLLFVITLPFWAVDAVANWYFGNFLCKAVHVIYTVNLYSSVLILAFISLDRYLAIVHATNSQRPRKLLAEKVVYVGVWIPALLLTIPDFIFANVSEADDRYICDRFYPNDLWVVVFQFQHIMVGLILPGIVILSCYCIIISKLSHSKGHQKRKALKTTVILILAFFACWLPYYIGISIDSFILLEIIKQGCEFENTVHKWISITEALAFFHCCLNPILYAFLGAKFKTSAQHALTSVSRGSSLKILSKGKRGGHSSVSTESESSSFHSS

In general, IC50 refers to the concentration at which inhibition is half-maximal. A high value points to weaker potency. Regarding `CC(C)C[C@H](NC(=O)[C@H](CO)NC(=O)[C@@H](NC(=O)[C@@H]1CCCN1C(=O)[C@@H](N)CCCCN)C(C)C)C(=O)N[C@@H](CO)C(=O)NCCCC[C@H](NC(=O)[C@@H]1CSSC[C@H](NC(=O)[C@H](Cc2ccc3ccccc3c2)NC(=O)[C@H](CCCNC(=N)N)NC(=O)[C@@H](N)CCCNC(=N)N)C(=O)N[C@@H](Cc2ccc(O)cc2)C(=O)N[C@@H](CCCNC(=N)N)C(=O)N[C@@H](CCCCN)C(=O)N[C@H](CCCCN)C(=O)N2CCC[C@H]2C(=O)N[C@@H](Cc2ccc(O)cc2)C(=O)N[C@@H](CCCNC(=N)N)C(=O)N[C@@H](CCCNC(=N)N)C(=O)C1)C(=O)O`, the IC50 in test [1] stood at 28.3 nM. Also, in test [2], the outcome was inactive.
`CC(C)C[C@H](NC(=O)[C@H](CO)NC(=O)[C@@H](NC(=O)[C@@H]1CCCN1C(=O)[C@@H](N)CCCCN)C(C)C)C(=O)N[C@@H](CO)C(=O)N[C@@H](Cc1ccc(O)cc1)C(=O)N[C@@H](CCCN=C(N)N)C(=O)N[C@@H](CO)C(=O)NCCCC[C@H](NC(=O)[C@@H]1CSSC[C@H](NC(=O)[C@H](Cc2ccc3ccccc3c2)NC(=O)[C@H](CCCN=C(N)N)NC(=O)[C@@H](N)CCCN=C(N)N)C(=O)N[C@@H](Cc2ccc(O)cc2)C(=O)N[C@@H](CCCN=C(N)N)C(=O)N[C@@H](CCCCN)C(=O)N[C@H](CCCCN)C(=O)N2CCC[C@H]2C(=O)N[C@@H](Cc2ccc(O)cc2)C(=O)N[C@@H](CCCN=C(N)N)C(=O)N[C@@H](CCCN=C(N)N)C(=O)C1)C(=O)O` displayed an IC50 in test [1] of 5.67 nM.
Turning to `CC(C)C[C@H](NC(=O)[C@H](CO)NC(=O)[C@@H](NC(=O)[C@@H]1CCCN1C(=O)[C@@H](N)CCCCN)C(C)C)C(=O)N[C@@H](CO)C(=O)NCCCC[C@H](NC(=O)[C@@H]1CSSC[C@H](NC(=O)[C@H](Cc2ccc3ccccc3c2)NC(=O)[C@H](CCCNC(=N)N)NC(=O)[C@@H](N)CCCNC(=N)N)C(=O)N[C@@H](Cc2ccc(O)cc2)C(=O)N[C@@H](CCCNC(=N)N)C(=O)N[C@@H](CCCCN)C(=O)N[C@H](CCCCN)C(=O)N2CCC[C@H]2C(=O)N[C@@H](Cc2ccc(O)cc2)C(=O)N[C@@H](CCCNC(=N)N)C(=O)N[C@@H](CCCNC(N)=O)C(=O)C1)C(=O)O`, the outcome in test [2] was inactive.
For the compound `NCCCC[C@@H]1NC(=O)[C@H](CCCN=C(N)N)NC(=O)[C@H](Cc2ccc(O)cc2)NC(=O)[C@@H](NC(=O)[C@H](Cc2ccc3ccccc3c2)NC(=O)[C@H](CCCN=C(N)N)NC(=O)[C@@H](N)CCCN=C(N)N)CSSC[C@@H](C(=O)N[C@@H](CCCN=C(N)N)C(=O)O)CC(=O)[C@H](CCCNC(N)=O)NC(=O)[C@H](CCCN=C(N)N)NC(=O)[C@H](Cc2ccc(O)cc2)NC(=O)[C@@H]2CCCN2C(=O)[C@@H](CCCCN)NC1=O`, in test [1], the IC50 is 1.56 nM.
The same measure, in the same setting: for `CC(C)C[C@H](NC(=O)[C@H](CO)NC(=O)[C@@H](NC(=O)[C@@H]1CCCN1C(=O)[C@@H](N)CCCCN)C(C)C)C(=O)N[C@@H](CO)C(=O)NCCCC[C@H](NC(=O)[C@@H]1CSSC[C@H](NC(=O)[C@H](Cc2ccc3ccccc3c2)NC(=O)[C@H](CCCN=C(N)N)NC(=O)[C@@H](N)CCCN=C(N)N)C(=O)N[C@@H](Cc2ccc(O)cc2)C(=O)N[C@@H](CCCN=C(N)N)C(=O)N[C@@H](CCCCN)C(=O)N[C@H](CCCCN)C(=O)N2CCC[C@H]2C(=O)N[C@@H](Cc2ccc(O)cc2)C(=O)N[C@@H](CCCN=C(N)N)C(=O)N[C@@H](CCCNC(N)=O)C(=O)C1)C(=O)O` the value was 62 nM.
`CC(C)C[C@H](NC(=O)[C@H](CO)NC(=O)[C@@H](NC(=O)[C@@H]1CCCN1C(=O)[C@@H](N)CCCCN)C(C)C)C(=O)N[C@@H](CO)C(=O)N[C@@H](Cc1ccc(O)cc1)C(=O)N[C@@H](CCCNC(=N)N)C(=O)NCCCC[C@@H]1NC(=O)[C@H](CCCNC(=N)N)NC(=O)[C@H](Cc2ccc(O)cc2)NC(=O)[C@@H]2CCCN2C(=O)[C@@H](CCCCN)NC(=O)[C@H](CCCCN)NC(=O)[C@H](CCCNC(=N)N)NC(=O)[C@H](Cc2ccc(O)cc2)NC(=O)[C@@H](NC(=O)[C@H](Cc2ccc3ccccc3c2)NC(=O)[C@H](CCCNC(=N)N)NC(=O)[C@@H](N)CCCNC(=N)N)CSSC[C@@H](C(=O)N[C@@H](CCCNC(=N)N)C(=O)O)CC1=O`: in test [3], the outcome was Active.
`CC(C)C[C@H](NC(=O)[C@H](CO)NC(=O)[C@@H](NC(=O)[C@@H]1CCCN1C(=O)[C@@H](N)CCCCN)C(C)C)C(=O)N[C@@H](CO)C(=O)N[C@@H](Cc1ccc(O)cc1)C(=O)N[C@@H](CCCN=C(N)N)C(=O)NCCCC[C@H](NC(=O)[C@@H]1CSSC[C@H](NC(=O)[C@H](Cc2ccc3ccccc3c2)NC(=O)[C@H](CCCN=C(N)N)NC(=O)[C@@H](N)CCCN=C(N)N)C(=O)N[C@@H](Cc2ccc(O)cc2)C(=O)N[C@@H](CCCN=C(N)N)C(=O)N[C@@H](CCCCN)C(=O)N[C@H](CCCCN)C(=O)N2CCC[C@H]2C(=O)N[C@@H](Cc2ccc(O)cc2)C(=O)N[C@@H](CCCN=C(N)N)C(=O)N[C@@H](CCCNC(N)=O)C(=O)C1)C(=O)O`: the half-inhibitory concentration (IC50) in test [1] is 21.7 nM.
As for `CC(C)C[C@H](NC(=O)[C@H](CO)NC(=O)[C@@H](NC(=O)[C@@H]1CCCN1C(=O)[C@@H](N)CCCCN)C(C)C)C(=O)N[C@@H](CO)C(=O)N[C@@H](Cc1ccc(O)cc1)C(=O)N[C@@H](CCCNC(=N)N)C(=O)N[C@@H](CO)C(=O)NCCCC[C@H](NC(=O)[C@@H]1CSSC[C@H](NC(=O)[C@H](Cc2ccc3ccccc3c2)NC(=O)[C@H](CCCNC(=N)N)NC(=O)[C@@H](N)CCCNC(=N)N)C(=O)N[C@@H](Cc2ccc(O)cc2)C(=O)N[C@@H](CCCNC(=N)N)C(=O)N[C@@H](CCCCN)C(=O)N[C@H](CCCCN)C(=O)N2CCC[C@H]2C(=O)N[C@@H](Cc2ccc(O)cc2)C(=O)N[C@@H](CCCNC(=N)N)C(=O)N[C@@H](CCCNC(=N)N)C(=O)C1)C(=O)O`, the result in test [4] was Active.
The compound `CC(C)C[C@H](NC(=O)[C@H](CO)NC(=O)[C@@H](NC(=O)[C@@H]1CCCN1C(=O)[C@@H](N)CCCCN)C(C)C)C(=O)N[C@@H](CO)C(=O)N[C@@H](Cc1ccc(O)cc1)C(=O)N[C@@H](CCCNC(=N)N)C(=O)N[C@@H](CO)C(=O)NCCCC[C@H](NC(=O)[C@@H]1CSSC[C@H](NC(=O)[C@H](Cc2ccc3ccccc3c2)NC(=O)[C@H](CCCNC(=N)N)NC(=O)[C@@H](N)CCCNC(=N)N)C(=O)N[C@@H](Cc2ccc(O)cc2)C(=O)N[C@@H](CCCNC(=N)N)C(=O)N[C@@H](CCCCN)C(=O)N[C@H](CCCCN)C(=O)N2CCC[C@H]2C(=O)N[C@@H](Cc2ccc(O)cc2)C(=O)N[C@@H](CCCNC(=N)N)C(=O)N[C@@H](CCCNC(N)=O)C(=O)C1)C(=O)O` gave an IC50 in test [1] of 21.2 nM. In addition, in test [2], the result was inactive.
`CC(C)C[C@H](NC(=O)[C@H](CO)NC(=O)[C@@H](NC(=O)[C@@H]1CCCN1C(=O)[C@@H](N)CCCCN)C(C)C)C(=O)N[C@@H](CO)C(=O)N[C@@H](Cc1ccc(O)cc1)C(=O)N[C@@H](CCCNC(=N)N)C(=O)NCCCC[C@H](NC(=O)[C@@H]1CSSC[C@H](NC(=O)[C@H](Cc2ccc3ccccc3c2)NC(=O)[C@H](CCCNC(=N)N)NC(=O)[C@@H](N)CCCNC(=N)N)C(=O)N[C@@H](Cc2ccc(O)cc2)C(=O)N[C@@H](CCCNC(=N)N)C(=O)N[C@@H](CCCCN)C(=O)N[C@H](CCCCN)C(=O)N2CCC[C@H]2C(=O)N[C@@H](Cc2ccc(O)cc2)C(=O)N[C@@H](CCCNC(=N)N)C(=O)N[C@@H](CCCNC(=N)N)C(=O)C1)C(=O)O` came in with a half-inhibitory concentration (IC50) in test [1] of 16.5 nM. In test [2], the outcome was inactive.
`CC(C)C[C@H](NC(=O)[C@H](CO)NC(=O)[C@@H](NC(=O)[C@@H]1CCCN1C(=O)[C@@H](N)CCCCN)C(C)C)C(=O)N[C@@H](CO)C(=O)N[C@@H](Cc1ccc(O)cc1)C(=O)N[C@@H](CCCNC(=N)N)C(=O)N[C@@H](CO)C(=O)N[C@@H](C)C(=O)NCCCC[C@H](NC(=O)[C@@H]1CSSC[C@H](NC(=O)[C@H](Cc2ccc3ccccc3c2)NC(=O)[C@H](CCCNC(=N)N)NC(=O)[C@@H](N)CCCNC(=N)N)C(=O)N[C@@H](Cc2ccc(O)cc2)C(=O)N[C@@H](CCCNC(=N)N)C(=O)N[C@@H](CCCCN)C(=O)N[C@H](CCCCN)C(=O)N2CCC[C@H]2C(=O)N[C@@H](Cc2ccc(O)cc2)C(=O)N[C@@H](CCCNC(=N)N)C(=O)N[C@@H](CCCNC(=N)N)C(=O)C1)C(=O)O`: the result in test [4] was Active.
As to `CC(C)C[C@H](NC(=O)[C@H](CO)NC(=O)[C@@H](NC(=O)[C@@H]1CCCN1C(=O)[C@@H](N)CCCCN)C(C)C)C(=O)N[C@@H](CO)C(=O)N[C@@H](Cc1ccc(O)cc1)C(=O)N[C@@H](CCCN=C(N)N)C(=O)NCCCC[C@@H]1NC(=O)[C@H](CCCN=C(N)N)NC(=O)[C@H](Cc2ccc(O)cc2)NC(=O)[C@@H]2CCCN2C(=O)[C@@H](CCCCN)NC(=O)[C@H](CCCCN)NC(=O)[C@H](CCCN=C(N)N)NC(=O)[C@H](Cc2ccc(O)cc2)NC(=O)[C@@H](NC(=O)[C@H](Cc2ccc3ccccc3c2)NC(=O)[C@H](CCCN=C(N)N)NC(=O)[C@@H](N)CCCN=C(N)N)CSSC[C@@H](C(=O)N[C@@H](CCCN=C(N)N)C(=O)O)CC1=O`, in test [1], the IC50 is 1.36 nM.
`CC(C)C[C@H](NC(=O)[C@H](CO)NC(=O)[C@@H](NC(=O)[C@@H]1CCCN1C(=O)[C@@H](N)CCCCN)C(C)C)C(=O)N[C@@H](CO)C(=O)N[C@@H](Cc1ccc(O)cc1)C(=O)NCCCC[C@H](NC(=O)[C@@H]1CSSC[C@H](NC(=O)[C@H](Cc2ccc3ccccc3c2)NC(=O)[C@H](CCCNC(=N)N)NC(=O)[C@@H](N)CCCNC(=N)N)C(=O)N[C@@H](Cc2ccc(O)cc2)C(=O)N[C@@H](CCCNC(=N)N)C(=O)N[C@@H](CCCCN)C(=O)N[C@H](CCCCN)C(=O)N2CCC[C@H]2C(=O)N[C@@H](Cc2ccc(O)cc2)C(=O)N[C@@H](CCCNC(=N)N)C(=O)N[C@@H](CCCNC(=N)N)C(=O)C1)C(=O)O`: in test [1], the 50% inhibitory concentration (IC50) was found to be 38.6 nM. Moreover, the result in test [4] was Active.
`CC(C)C[C@H](NC(=O)[C@H](CO)NC(=O)[C@@H](NC(=O)[C@@H]1CCCN1C(=O)[C@@H](N)CCCCN)C(C)C)C(=O)N[C@@H](CO)C(=O)N[C@@H](Cc1ccc(O)cc1)C(=O)N[C@@H](CCCN=C(N)N)C(=O)N[C@@H](CO)C(=O)N[C@@H](C)C(=O)NCCCC[C@H](NC(=O)[C@@H]1CSSC[C@H](NC(=O)[C@H](Cc2ccc3ccccc3c2)NC(=O)[C@H](CCCN=C(N)N)NC(=O)[C@@H](N)CCCN=C(N)N)C(=O)N[C@@H](Cc2ccc(O)cc2)C(=O)N[C@@H](CCCN=C(N)N)C(=O)N[C@@H](CCCCN)C(=O)N[C@H](CCCCN)C(=O)N2CCC[C@H]2C(=O)N[C@@H](Cc2ccc(O)cc2)C(=O)N[C@@H](CCCN=C(N)N)C(=O)N[C@@H](CCCN=C(N)N)C(=O)C1)C(=O)O` yielded an IC50 in test [1] of 24.9 nM.
